Measured values taken from patent US20090203776A1, “METHODS OF USING MENTHOL PROPYLENEGLYCOL-CARBONATE AND ANALOGS THEREOF FOR PRODUCING ANTI-INFLAMMATORY AND ANTI-ANGIOGENIC EFFECTS” (priority 2004, published 2009).

Assays:
[1] = tested on: TPA-induced inflammatory response (mouse ear edema); test: TPA-induced mouse ear edema, topical application; assay type: in vivo, mice; details: for anti-inflammatory effect (in words): TPA-induced inflammatory response, topical; for Anti-inflammatory Effect (% of control): reduction in ear thickness vs control group
Description: Edema was induced in mice by topical application of 10 μl of TPA (Tetradecnoylphorbol acetate) in acetone (2.5 μg/ear) to both the inner and outer surface of one ear of each mouse used in the experiment. Each test compound, diluted with acetone to a concentration of 10% was applied topically to the inflamed mouse ear immediately after TPA application, so as to deliver 2.5 mg/ear. The reference drug, indomethacin (0.5 mg/ear), was administered as a positive control. The thickness of each ear was measured before treatment and 4 hours after induction of inflammation, using a micrometer (Mitutoyo Co.). Anti-inflammatory effect was expressed as the reduction in ear thickness with respect to the control group.

[2] = tested on: aortic rings (angiogenic sprouting / microvessel formation); test: ex vivo rat aortic ring angiogenesis assay; assay type: cell-based, Sprague Dawley rats; details: for % Inhibition (microvessel density) / Microvessel Density (pixel^2): day 10; for Microvessel Density (pixel^2): 5 aortic rings, ECGS as inducer; for anti-angiogenic effect (in words): rat aortic ring assay, 1, 10, and 100 μM
Excerpt: The effect of racemic menthol propyleneglycol-carbonate on angiogenesis was studied by culturing aortic explants in three-dimensional matrix gels according to the procedure of Kruger and Figg (Kruger E. A. and Figg, W. D. Protein Binding Alters the Activity of Suramin, Carboxyamidotriazole, and UCN-01 in an ex Vivo Rat Aortic Ring Angiogenesis Assay Clinical Cancer Research 7:1867-1872, 2001). Thoracic aortas were excised from 8-week-old mail Sprague Dawley rats and the fibroadipose tissue was removed. The aortas were sectioned into 1-mm-long cross-sections, rinsed with Human Endothelial-SFM (GIBCO), placed on the Matrigel-coated wells, covered with additional 50 μl Matrigel, and allowed to gel for more than 30 min at 37° C., 5% CO2. All the rings were cultured in Human Endothelial-SFM (GIBCO) supplemented with […] of ECGS (Endothelial Cell Growth Supplement, Sigma) as an angiogenesis inducer. Racemic menthol propylene-carbonate diluted with enthanol was added to the culture medium at final concentrations of 1, 10, and 100 μM. Ethanol alone (1%) was added to the culture medium as a vehicle control. All assays were performed by using 5 aortic rings per sample. Aortic rings were photographed on day 10. The area of angiogenic sprouting was calculated using Image-Pro Plus software (Media Cybernetics). Microvessel densities are reported in square pixels.

Ha-CaT cells = test: cell cytotoxicity assay, XTT; assay type: cell-based; details: for Cell Viability (%): 48 hours, Ha-CaT
Description: 5×10^3 Ha-CaT cells were plated in each well of 96 well plates and racemic menthol propyleneglycol-carbonate was added at various concentrations. The plates were incubated for another 48 hours and the viable cells were measured by XTT Cell Proliferation Kit (Roche). More than 70% of Ha-CaT cells were viable even at high concentration of 100 μM.

[3] = tested on: HUVE (Human Umbilical Vein Endothelial) cells; test: HUVE cell proliferation in the presence of bFGF, XTT; assay type: cell-based; details: 48 hours; for Proliferation (%): bFGF only = 100, no bFGF = 0; for Average (relative cell number, XTT): with bFGF
Description: HUVE (Human Umbilical Vein Endothelial) cells were isolated from human umbilical cord veins by a method of Jaffe et al. (Jaffe, E. A., Nachman, R. L., Becker, C. G., and Minick, C. R. Culture of Human endothelial cells derived from umbilical veins. J. Clin. Invest. 52: 2745-2756, 1973). HUVE cells were confirmed by immunostaining with antibody against factor VIII. The cells were grown in M199 medium (Gibco BRL, Grand Island, N.Y.) supplemented with 10% fetal bovine serum, 100 units/mL penicillin, 100 μg/mL streptomycin, 50 μg/mL endothelial cell growth supplement, and 5 units/mL heparin at 37° C. in an atmosphere of 5% CO2-95% air.
1×10^4 HUVE cells were plated in each well of 96 well plates and five different concentrations ranging from 1 to 100 of racemic menthol propyleneglycol-carbonate were tested in the presence of bFGF used as maximum proliferation control. Cells were cultured for an additional 48 hours, and relative cell numbers in each well were determined by XTT Cell Proliferation Kit (Roche).

[4] = 2.5 mg/ear topical (10% in acetone), 4 hours after TPA 2.5 μg/ear

Structure (SMILES): CC1CCC(C(C)C)C(O)C1 (centres unmarked) [(l)-Menthol, reference compound]
- anti-inflammatory effect (in words) [1]: no appreciable anti-inflammatory effect
- Anti-inflammatory Effect (% of control) [1, 4]: 0 % of control

Structure (SMILES): C=C(C)C1CCC(C)CC1OC(=O)OCC(C)O (centres unmarked) [isopulegol propyleneglycol-carbonate]
- anti-inflammatory effect (in words) [1]: Satisfactory anti-inflammatory effects
- Anti-inflammatory Effect (% of control) [1, 4]: 33 % of control

Structure (SMILES): COc1ccc2c(c1)c(CC(=O)O)c(C)n2C(=O)c1ccc(Cl)cc1 [Indomethacin, reference compound]
- Anti-inflammatory Effect (% of control) ([1]; positive control, 0.5 mg/ear, 4 hours after TPA): 96 % of control

Structure (SMILES): CC1CCC(C(C)C)C(OC(=O)OCCCCCCCCCO)C1 (centres unmarked) [menthyl-9-hydroxynonyl-carbonate]
- anti-inflammatory effect (in words) [1]: Satisfactory anti-inflammatory effects
- Anti-inflammatory Effect (% of control) [1, 4]: 45 % of control

Structure (SMILES): CC1CCC(C(C)C)C(OCC(O)CO)C1 (centres unmarked) [menthoxy-propane-1,2-diol]
- anti-inflammatory effect (in words) [1]: Satisfactory anti-inflammatory effects
- Anti-inflammatory Effect (% of control) [1, 4]: 27 % of control

Structure (SMILES): CC(O)COC(=O)OC1CC(C)CCC1C(C)C (racemic) [racemic menthol propyleneglycol-carbonate]
- anti-inflammatory effect (in words) [1]: Satisfactory anti-inflammatory effects
- Anti-inflammatory Effect (% of control) [1, 4]: 23 % of control
- % Inhibition (microvessel density) ([2]; 1 uM): 15%
- Microvessel Density (pixel^2) ([2]; 1 uM): 13.4 ± 4.1 pixel^2
- % Inhibition (microvessel density) ([2]; 10 uM): 22%
- Microvessel Density (pixel^2) ([2]; 10 uM): 12.2 ± 2.5 pixel^2
- % Inhibition (microvessel density) ([2]; 100 uM): 33%
- Microvessel Density (pixel^2) ([2]; 100 uM): 10.6 ± 3.8 pixel^2
- anti-angiogenic effect (in words) [2]: Satisfactory anti-angiogenic effect
- anti-angiogenic effect (in words) ([2]; listed as racemic menthol propylene-carbonate): inhibited microvessel formation in rat aortic ring assay in a dose dependent manner
- Cell Viability (%) (Ha-CaT cells; 0.1 uM): 100%
- Cell Viability (%) (Ha-CaT cells; 1.0 uM): 100%
- Cell Viability (%) (Ha-CaT cells; 5.0 uM): 96.5%
- Cell Viability (%) (Ha-CaT cells; 10.0 uM): 96.3%
- Cell Viability (%) (Ha-CaT cells; 50.0 uM): 81.8%
- cytotoxic effect on normal cells (in words) (Ha-CaT cells; Ha-CaT cells, up to 100 μM): non-toxic against normal cells
- Proliferation (%) ([3]; 1 μM): 97.6%
- Average (relative cell number, XTT) ([3]; 1 μM): 1.0623
- Proliferation (%) ([3]; 5 μM): 93.9%
- Average (relative cell number, XTT) ([3]; 5 μM): 1.0305
- Proliferation (%) ([3]; 10 μM): 95.3%
- Average (relative cell number, XTT) ([3]; 10 μM): 1.0425
- Proliferation (%) ([3]; 50 μM): 97.6%
- Average (relative cell number, XTT) ([3]; 50 μM): 1.0621
- Proliferation (%) ([3]; 100 μM): 80.0%
- Average (relative cell number, XTT) ([3]; 100 μM): 0.9121
